The text below walks through data of patent publication US7115603B2, “A1-pyrrolines” (priority 2001, dated 2006).

Where two headings read alike, the source gives them in different places.

Series [1] can be described thus: log P by HPLC on reversed-phase column (EEC Directive 79/831 Annex V.A8). It is filed as physicochemical. As for the experimental part:
The log p values reported in the above tables and preparation examples are determined in accordance with EEC Directive 79/831 Annex V.A8 by means of HPLC (high performance liquid chromatography) on a reversed-phase column (C 18). Temperature: 43° C.
Determination is carried out in the acidic range at a pH of 2.3 using 0.1% aqueous phosphoric acid and acetonitrile as mobile phases; linear gradient from 10% acetonitrile to 90% acetonitrile. The values are marked in the tables with ^a).
Determination takes place in the neutral range at a pH of 7.5 with 0.01-molar aqueous phosphate buffer solution and acetonitrile as mobile phases; linear gradient from 10% acetonitrile to 90% acetonitrile. The values are marked in the tables with ^b).
The calibration is carried out using unbranched alkan-2-ones (having from 3 to 16 carbon atoms) whose logP values are known (logP values determined on the basis of the retention times, using linear interpolation between two successive alkanones).

The test system of series [2] is Heliothis virescens caterpillars. In words: Heliothis virescens test (soya bean shoots dipped). The format is in vivo. Particulars: kill, 100 ppm active compound. How it is done: (§1) [table] To produce a suitable preparation of active compound, 1 part by weight of active compound is mixed with the stated amounts of solvent and emulsifier, and the concentrate is diluted with emulsifier-containing water to the desired concentration. Soya bean shoots (Glycine max) are treated by being dipped into the preparation of active compound of the desired concentration and are populated with Heliothis virescens caterpillars whilst the leaves are still moist. After the desired period of time, the kill in % is determined. 100% means that all caterpillars have been killed; 0% means that none of the caterpillars has been killed.

The test system of series [3] is larvae of the mustard beetle (Phaedon cochleariae). The experiment in a line: Phaedon larvae test (cabbage leaves dipped). The format is in vivo. Particulars: 168 h, kill, 7 d, read-out: Efficacy in % after 7 d; for pest or weed control at 100 ppm: 100 ppm active compound. How it is done: as §1, with “Cabbage leaves (Brassica oleracea)” for “Soya bean shoots (Glycine max)”, “larvae of the mustard beetle (Phaedon cochleariae)” for “Heliothis virescens caterpillars”, “beetle larvae” for “caterpillars”

For series [4], the system named is cabbage moth (Plutella xylostella) caterpillars. In words: Plutella test (cabbage leaves dipped). The format is in vivo. Particulars: kill. How it is done:
as §1, with “Cabbage leaves (Brassica oleracea)” for “Soya bean shoots (Glycine max)”, “cabbage moth (Plutella xylostella)” for “Heliothis virescens”

The subject of series [5] is army worm (Spodoptera exigua) caterpillars. The experiment in a line: Spodoptera exigua test (cabbage leaves dipped). It is filed as in vivo. Particulars: kill. How it is done: as §1, with “Cabbage leaves (Brassica oleracea)” for “Soya bean shoots (Glycine max)”, “army worm (Spodoptera exigua)” for “Heliothis virescens”
The test system of series [6] is army worm (Spodoptera frugiperda) caterpillars. The experiment in a line: Spodoptera frugiperda test (cabbage leaves dipped). The format is in vivo. Particulars: 168 h, kill, 100 ppm active compound, 7 d, read-out: Efficacy in % after 7 d. How it is done: as §1, with “Cabbage leaves (Brassica oleracea)” for “Soya bean shoots (Glycine max)”, “army worm (Spodoptera frugiperda)” for “Heliothis virescens”

Series [7] relates to greenhouse red spider mite (Tetranychus urticae). The experiment in a line: Tetranychus test (OP resistant/dip treatment). It is filed as in vivo. Particulars: kill of spider mites, 100 ppm active compound. How it is done:
[table] To produce a suitable preparation of active compound, 1 part by weight of active compound is mixed with the stated amounts of solvent and emulsifier, and the concentrate is diluted with emulsifier-containing water to the desired concentration. Bean plants (Phaseolus vulgaris) which are heavily infested by all stages of the greenhouse red spider mite (Tetranychus urticae) are dipped into a preparation of active compound of the desired concentration. After the desired period of time, the effect in % is determined. 100% means that all spider mites have been killed; 0% means that none of the spider mites has been killed.

The test system of series [8] is cotton aphid (Aphis gossypii). In words: Aphis gossypii test (cotton leaves dipped). The format is in vivo. Particulars: kill, 100 ppm active compound. How it is done: [table] To produce a suitable preparation of active compound, 1 part by weight of active compound is mixed with the stated amounts of solvent and emulsifier, and the concentrate is diluted with emulsifier-containing water to the desired concentration. Cotton leaves (Gossypium hirsutum) heavily infested by the cotton aphid (Aphis gossypii) are treated by being dipped into the preparation of active compound of the desired concentration. After the desired period of time, the kill in % is determined. 100% means that all […] have been killed; 0% means that none of the aphids has been killed.

The subject of a further series is Lucilia cuprina larvae. The experiment in a line: Blowfly larvae test/development-inhibiting effect. It is filed as in vivo. Particulars: for mortality at 100 ppm: 100 ppm active compound; for mortality at 20 ppm: 20 ppm active compound. How it is done: 20 mg of active compound are dissolved in 1 ml of dimethyl sulphoxide; lower concentrations are prepared by dilution with distilled water.
About 20 Lucilia cuprina larvae are introduced into a test tube containing about 1 cm^3 of horse meat and 0.5 ml of the test preparation of active compound. After 24 and 48 hours, the activity of the preparation is determined. The test tubes are transferred to beakers with their bases covered with sand. After a further 14 days, the test tubes are removed and the pupae/flies are counted.
The effect of the preparation is assessed according to the number of flies which have hatched after 1.5 times the development period of an untreated control. 100% means that no flies have hatched; 0% means that all of the flies have hatched normally.

In series [9] the test system is caterpillars of the cotton bollworm (Heliothis armigera). In words: Heliothis armigera test (soya bean shoots dipped). The format is in vivo. Particulars: kill, 20 ppm active compound. As for the experimental part: [table] To produce a suitable preparation of active compound, 1 part by weight of active compound is mixed with the stated amounts of solvent and emulsifier, and the concentrate is diluted with emulsifier-containing water to the desired concentration. Soya bean shoots (Glycine max) are treated by being dipped into the preparation of active compound of the desired concentration and are populated with caterpillars of the cotton bollworm (Heliothis armigera) whilst the leaves are still moist. After the desired period of time, the kill in % is determined. 100% means that all […] have been killed; 0% means that none of the caterpillars has been killed.

The test system of series [10] is fruit tree red spider mite (Panonychus ulmi). In words: Panonychus test (plum trees dipped). It is filed as in vivo. Particulars: kill of spider mites, 100 ppm active compound. How it is done:
To produce a suitable preparation of active compound, 1 part by weight of active compound is mixed with the stated amounts of solvent and emulsifier, and the concentrate is diluted with emulsifier-containing water to the desired concentration.
Plum trees (Prunus domestica) about 30 cm high which are heavily infested by all stages of the fruit tree red spider mite (Panonychus ulmi) are dipped into a preparation of active compound of the desired concentration.
After the desired period of time, the effect in % is determined. 100% means that all spider mites have been killed; 0% means that none of the spider mites has been killed.

[11] abbreviates: reversed-phase HPLC column (C18); HPLC, acidic range pH 2.3, marked a).
The mark [12] stands for this setting: reversed-phase HPLC column (C18); HPLC, neutral range pH 7.5, marked b).
The mark [13] stands for this setting: 336 h, 14 d, inhibition of fly hatching, read-out: % Activity/kill (14 d).

One may read the chromatographic logP as lipophilicity estimated from chromatographic retention. A higher chromatographic logP goes with higher lipophilicity. As for `CC(C)Sc1ccc(-c2ccc(C3CCC(c4c(F)cccc4F)=N3)cc2)cn1` (stereo not drawn) [compound 8], the figures for the chromatographic logP in series [1] (setting [11]) and in series [1] (setting [12]) were 3.8 and 4.96, respectively. The “Efficacy in % after 7 d” value in series [2] was determined as 100%; in [4] (100 ppm active compound) it was 100%; in [5] (100 ppm active compound), 100%; in series [7] it was 98%. In addition, the pest or weed control at 100 ppm in series [3] and in series [6] was 100% each time.
For `CCCOc1ccc(-c2ccc(C3CCC(c4c(F)cccc4F)=N3)cc2)cn1` (stereo not drawn) [compound 5], the chromatographic logP in series [1] (setting [11]) was 3.42; in series [1] (setting [12]), 4.77. Further, the “Efficacy in % after 6 d” value in series [8] was 99%. In addition, the “Efficacy in % after 7 d” value came to 100% in [2], 100% in series [4] (100 ppm active compound), 100% in [5] (100 ppm active compound) and 98% in series [7]. Also, the pest or weed control at 100 ppm in [3] and in series [6] was 100% each time.
Consider `CCSc1ccc(-c2ccc(C3CCC(c4c(F)cccc4F)=N3)cc2)cn1` (stereo not drawn) [compound 4], for which the chromatographic logP in series [1] (setting [11]) turned out to be 3.29; in series [1] (setting [12]) it was 4.54. The “Efficacy in % after 7 d” value in [2] is on record as 100%; in series [4] (100 ppm active compound), 100%; in series [5] (100 ppm active compound) it was 100%; in [7], 95%. Also, the pest or weed control at 100 ppm in series [3] and in series [6] was 100% in each case. Further, in the series with Lucilia cuprina larvae (setting [13]), the mortality at 100 ppm came out at 100%.
On to `Fc1cccc(F)c1C1=NC(c2ccc(-c3ccc(OC4CCCC4)nc3)cc2)CC1` (stereo not drawn) [compound 21], for which the chromatographic logP in [1] (setting [11]) was determined as 3.99; in series [1] (setting [12]) it was 5.34. Besides, the pest or weed control at 100 ppm in series [3] and in series [6] was 100% in each case. Also, the “Efficacy in % after 7 d” value in series [7] is listed as 95%.
In series [1] (setting [11]), `Fc1cccc(F)c1C1=NC(c2ccc(-c3ccc(OC4CCC4)nc3)cc2)CC1` (stereo not drawn) [compound 19] registered a chromatographic logP of 3.66. Further, the chromatographic logP in [1] (setting [12]) amounted to 4.9. For the same molecule, the pest or weed control at 20 ppm in series [3] (20 ppm active compound) is 100%. Moreover, the pest or weed control at 100 ppm in series [6] was found to be 100%. Further, the “Efficacy in % after 7 d” value in [7] stood at 95%. Further, in the series with Lucilia cuprina larvae (setting [13]), the mortality at 20 ppm is 100% and the mortality at 100 ppm was found to be 100%.
Regarding `Fc1cccc(F)c1C1=NC(c2ccc(-c3ccc(OCC4CC4)nc3)cc2)CC1` (stereo not drawn) [compound 25], the chromatographic logP in [1] (setting [11]) amounted to 3.48; in [1] (setting [12]), 4.67. Further, the “Efficacy in % after 7 d” value in series [9], in [4] (20 ppm active compound) and in [5] (20 ppm active compound) was 100% each time. The pest or weed control at 100 ppm in series [3] and in series [6] was 100% each time. In the series on Lucilia cuprina larvae (48 h, read-out: % Activity/kill (48 h)), the mortality at 100 ppm is 100%. Moreover, the mortality at 20 ppm in the series with Lucilia cuprina larvae (setting [13]) turned out to be 100%.
Consider `CCOc1ccc(-c2ccc(C3CCC(c4c(F)cccc4F)=N3)cc2)cn1` (stereo not drawn) [No. 1, 5-{4-[5-(2,6-difluorophenyl)-3,4-dihydro-2H-pyrrol-2-yl]phenyl}-2-ethoxypyridine], for which, in [1] (setting [11]), the chromatographic logP worked out at 2.92. The pest or weed control at 100 ppm in series [3] and in series [6] was 100% throughout.
Regarding `CC(C)Oc1ccc(-c2ccc(C3CCC(c4c(F)cccc4F)=N3)cc2)cn1` (stereo not drawn) [compound 7], the chromatographic logP in series [1] (setting [11]) came to 3.42; in [1] (setting [12]), 4.73. Besides, in [8], the “Efficacy in % after 6 d” value is 99%. The “Efficacy in % after 7 d” value in [2], in series [4] (100 ppm active compound), in series [5] (100 ppm active compound) and in series [10] was 100% in each case. In addition, the pest or weed control at 100 ppm in series [3] and in series [6] was 100% in each case.
The molecule `CCOc1ccc(Br)cn1` [III-1, 5-bromo-2-ethoxypyridine] had a chromatographic logP in series [1] (setting [11]) of 2.92.
